Measurements taken from patent publication US10196398B2, “Pesticidally active tetracyclic derivatives with sulfur containing substituents” (Syngenta Participations AG, priority 2014, dated 2019).
Where two headings read alike, the source gives them in different places.

Experiments:
Type in all cases: in vivo
Diabrotica balteata = assay: Example B1: Diabrotica balteata (corn root worm), sprayed maize sprouts; conditions: 96 h, read-out: effect in at least one of the two categories (mortality or growth inhibition)
Experimental: Example B1: Diabrotica balteata (Corn Root Worm)
Maize sprouts placed onto an agar layer in 24-well microtiter plates were treated with aqueous test solutions prepared from 10′000 ppm DMSO stock solutions by spraying. After drying, the plates were infested with L2 larvae (6 to 10 per well). The samples were assessed for mortality and growth inhibition in comparison to untreated samples 4 days after infestation.

Spodoptera littoralis [1] = assay: whole plant or invertebrate; conditions: in Gossypium barbadense, 144 h, read-out: effect in at least one of the three categories (mortality, anti-feeding, or growth inhibition)
Source text: (§1) Example B6: Spodoptera littoralis (Egyptian Cotton Leaf Worm)
Test compounds were applied by pipette from 10′000 ppm DMSO stock solutions into 24-well plates and mixed with agar. Lettuce seeds were placed onto the agar and the multi well plate was closed by another plate which contained also agar. After 7 days the compound was absorbed by the roots and the lettuce grew into the lid plate. The lettuce leaves were then cut off into the lid plate. Spodoptera eggs were pipetted through a plastic stencil onto a humid gel blotting paper and the lid plate was closed with it. The samples were assessed for mortality, anti-feedant effect and growth inhibition in comparison to untreated samples 6 days after infestation.

Plutella xylostella = assay: Example B5: Plutella xylostella (diamond back moth), artificial diet; conditions: 120 h, read-out: effect in at least one of the two categories (mortality or growth inhibition)
Experimental: Example B5: Plutella xylostella (Diamond Back Moth)
24-well microtiter plates with artificial diet were treated with aqueous test solutions prepared from 10′000 ppm DMSO stock solutions by pipetting. After drying, the plates were infested with L2 larvae (10 to 15 per well). The samples were assessed for mortality and growth inhibition in comparison to untreated samples 5 days after infestation.

Spodoptera littoralis [2] = assay: whole plant or invertebrate; conditions: foliar, 72 h, read-out: control (mortality, anti-feeding effect, or growth inhibition)
Experimental: as §1
Cotton leaf discs were placed onto agar in 24-well microtiter plates and sprayed with aqueous test solutions prepared from 10′000 ppm DMSO stock solutions. After drying the leaf discs were infested with five L1 larvae. The samples were assessed for mortality, anti-feeding effect, and growth inhibition in comparison to untreated samples 3 days after infestation. Control of Spodoptera littoralis by a test sample is given when at least one of the categories mortality, anti-feedant effect, and growth inhibition is higher than the untreated sample.

Euschistus heros = assay: Example B2: Euschistus heros (neotropical brown stink bug), sprayed soybean leaves; conditions: 120 h, read-out: effect in at least one of the two categories (mortality or growth inhibition)
Experimental: Example B2: Euschistus heros(Neotropical Brown Stink Bug)
Soybean leaves on agar in 24-well microtiter plates were sprayed with aqueous test solutions prepared from 10′000 ppm DMSO stock solutions. After drying the leaves were infested with N2 nymphs. The samples were assessed for mortality and growth inhibition in comparison to untreated samples 5 days after infestation.

Myzus persicae [3] = assay: Example B3: Myzus persicae (green peach aphid), feeding/contact activity; conditions: 144 h
Experimental: Example B3: Myzus persicae (Green Peach Aphid):Feeding/Contact Activity
(§2) Sunflower leaf discs were placed onto agar in a 24-well microtiter plate and sprayed with aqueous test solutions prepared from 10′000 ppm DMSO stock solutions. After drying, the leaf discs were infested with an aphid population of mixed ages. The samples were assessed for mortality 6 days after infestation.

Thrips tabaci = assay: Example B8: Thrips tabaci (onion thrips), feeding/contact activity; conditions: 144 h, application rate of 200 ppm, population of mixed ages, 6 days after infestation
Experimental: Example B8: Thrips tabaci (Onion Thrips) Feeding/Contact Activity
as §2, with “on” for “onto”, “in” for “in a”, “plates” for “plate”, “drying” for “drying,”, “a thrips” for “an aphid”

[4] = test system: Frankliniella occidentalis; assay: Example B7: Frankliniella occidentalis (western flower thrips), feeding/contact activity; conditions: 168 h, application rate of 200 ppm, population of mixed ages, 7 days after infestation
Experimental: Example B7: Frankliniella occidentalis (Western Flower Thrips):Feeding/Contact Activity
Sunflower leaf discs were placed on agar in 24-well microtiter plates and sprayed with aqueous test solutions prepared from […] stock solutions. After drying the leaf discs were infested with a Frankliniella population of mixed ages. The samples were assessed for mortality 7 days after infestation.

Myzus persicae [5] = assay: Example B4: Myzus persicae (green peach aphid), systemic activity; conditions: 144 h, test rate of 24 ppm, roots of pea seedlings in test solution, 6 days
Experimental: Example B4: Myzus persicae (Green Peach Aphid). Systemic Activity
Roots of pea seedlings infested with an aphid population of mixed ages were placed directly into aqueous test solutions prepared from 10′000 DMSO stock solutions. The samples were assessed for mortality 6 days after placing seedlings into test solutions.

CCS(=O)(=O)c1cc2ccccc2nc1-c1cn2cnc(C(F)(F)F)cc2n1 [Compound P1, 3-ethylsulfonyl-2-[7-(trifluoromethyl)imidazo[1,2-c]pyrimidin-2-yl]quinolone]
≥ 80%: percent control (mortality or growth inhibition) at 200 ppm (Diabrotica balteata) | percent control (mortality, anti-feedant effect or growth inhibition) at 12.5 ppm (Spodoptera littoralis [1]) | percent control (mortality or growth inhibition) at 200 ppm (Plutella xylostella) | percent control (mortality, anti-feedant effect or growth inhibition) at 200 ppm (Spodoptera littoralis [2]) | percent control (mortality or growth inhibition) at 200 ppm (Euschistus heros) | mortality at 200 ppm (Myzus persicae [3])

CCS(=O)(=O)c1cc2c(cc1-c1cn3cnc(C(F)(F)F)cc3n1)nc(C(F)(F)F)n2C [Compound P2, 2-[6-ethylsulfonyl-1-methyl-2-(trifluoromethyl)benzimidazol-5-yl]-7-(trifluoromethyl)imidazo[1,2-c]pyrimidine]
≥ 80%: percent effect (mortality or growth inhibition) at 200 ppm (Diabrotica balteata; application rate of 200 ppm, L2 larvae, 4 days after infestation) | mortality at 200 ppm (Thrips tabaci) | percent effect (mortality or growth inhibition) at 200 ppm (Plutella xylostella; application rate of 200 ppm, L2 larvae, 5 days after infestation) | percent effect (mortality or growth inhibition) at 200 ppm (Euschistus heros; application rate of 200 ppm, N2 nymphs, 5 days after infestation) | mortality at 200 ppm [4] | mortality at 24 ppm (Myzus persicae [5]) | mortality at 200 ppm (Myzus persicae [3]; application rate of 200 ppm, aphid population of mixed ages, 6 days after infestation, read-out: mortality)
